This note sets out measurements from patent US7223791B2, “Function regulator for retinoid relative receptor” (Takeda Pharmaceutical Company Limited, priority 2001, dated 2007).

The target of one data set is T1, PPARγ-RXRα heterodimer (Homo sapiens, UniProt P19793+P37231).
T1 construct: 1.4 kb DNA fragment containing PPARγ gene was recovered from the gel; 1.4 kb DNA fragment containing RXRα gene was recovered from the gel; expressed in transfected cells
T1 sequence (P37231 1-477 isoform P37231-2): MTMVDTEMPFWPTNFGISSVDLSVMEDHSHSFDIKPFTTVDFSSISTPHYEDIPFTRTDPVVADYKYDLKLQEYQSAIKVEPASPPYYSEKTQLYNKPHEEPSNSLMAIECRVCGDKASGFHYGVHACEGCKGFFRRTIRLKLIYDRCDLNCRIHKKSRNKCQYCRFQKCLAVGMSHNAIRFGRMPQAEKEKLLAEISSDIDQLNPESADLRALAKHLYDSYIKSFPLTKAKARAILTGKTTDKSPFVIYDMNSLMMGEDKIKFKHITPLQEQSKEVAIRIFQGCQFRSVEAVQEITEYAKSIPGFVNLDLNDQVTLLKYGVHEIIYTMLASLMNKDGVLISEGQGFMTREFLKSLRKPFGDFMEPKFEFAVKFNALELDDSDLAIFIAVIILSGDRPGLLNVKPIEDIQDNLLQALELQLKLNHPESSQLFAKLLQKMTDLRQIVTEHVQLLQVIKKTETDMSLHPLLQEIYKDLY
T1 sequence (P19793 1-462): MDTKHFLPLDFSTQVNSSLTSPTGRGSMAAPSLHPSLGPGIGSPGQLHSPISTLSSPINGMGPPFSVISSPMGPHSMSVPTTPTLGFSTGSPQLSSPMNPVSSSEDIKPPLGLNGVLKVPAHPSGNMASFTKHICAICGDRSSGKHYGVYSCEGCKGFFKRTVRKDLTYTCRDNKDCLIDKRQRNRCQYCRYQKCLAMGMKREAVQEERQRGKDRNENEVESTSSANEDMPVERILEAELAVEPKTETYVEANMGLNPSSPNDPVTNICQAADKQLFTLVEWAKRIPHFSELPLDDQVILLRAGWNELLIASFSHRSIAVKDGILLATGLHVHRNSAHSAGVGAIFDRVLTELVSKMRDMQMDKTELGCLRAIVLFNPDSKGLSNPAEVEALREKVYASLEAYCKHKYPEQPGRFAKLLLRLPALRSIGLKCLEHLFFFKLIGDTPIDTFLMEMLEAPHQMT
As to the kind of experiment: PPARγ-RXRα heterodimer ligand activity (luciferase reporter, PPARγ:RXRα:4ERPP/CHO-K1 cells). The note with it: 48 hrs, concentration for 50% of the maximum fold induction. The data set is classed as cell-based. How it is done: (PPARγ-RXRα Heterodimer Ligand Activity)
PPARγ: RXRα: 4ERPP/CHO-K1 cells obtained in the following Reference Example 5 were cultured in HAM F12 medium (manufactured by NISSUI SEIYAKU) containing 10% fetal bovine serum [manufactured by Life Technologies, Inc., USA], seeded in a 96-well white plate [manufactured by Corning Coster Corporation, USA] at the density of 2×10^4 cells/well and cultured in a CO2 gas incubator at 37° C. overnight.
After washing the 96-well white plate with PBS (Phosphate-buffered saline), 90 μl of HAM F12 medium containing 0.1% fatty acid-free bovine serum albumin (BSA) and 10 μl of test compound were added, and the cells were cultured in a CO2 gas incubator at 37° C. for 48 hrs. The medium was removed and 40 μl of PicaGene 7.5 (manufactured by Wako Pure Chemical Industries, Ltd.) was added. After stirring, the luciferase activity was determined using Lumistar [manufactured by BMG Labtechnologies GmbH, Germany].
The fold induction was calculated from the luciferase activity of each test compound when the luciferase activity of the test compound non-administration group is taken as 1. The values of the test compound concentration and the fold induction were analyzed using PRISM 2.01 (produced by GraphPad Software Inc. USA) to calculate the EC50 values, the concentration of a test compound for 50% of the maximum fold induction. The results are shown in [Table 2].
Introduction of Human PPARγ- and RXRα-Expression Plasmid and Reporter Plasmid into CHO-K1 Cell as Well as Establishment of Expressed Cell
A CHO-K1 cell cultured in a tissue culture flask (750 ml) [produced by Corning Costar Corporation, USA] containing HAM F12 medium (produced by NISSUI SEIYAKU) supplemented with 10% fetal bovine serum [produced by Life Technologies, Inc., USA] was scraped by treating with 0.5 g/L trypsin-0.2 g/L EDTA (ethylenediamine tetraacetate) [produced by Life Technologies, Inc., USA], and then the cell was washed with PBS (Phosphate-buffered saline)[produced by Life Technologies, Inc., USA], centrifuged (1000 rpm, 5 minutes) and suspended in PBS. Subsequently, DNA was introduced into the cell under the conditions shown below using GENE PULSER (produced by Bio-Rad Laboratories, USA).
Namely, to a cuvette having a 0.4 cm gap were added 8×10^6 cells and 10 μg of plasmid pVgRXR2-hPPARγ obtained in Reference Example 3 and 10 μg of reporter plasmid pGL3-4ERPP-TK neo obtained in Reference Example 4, which was subjected to electroporation at the voltage of 0.25 kV under the capacitance of 960 μF. Subsequently, the cell was transferred into a HAM F12 medium containing 10% fetal bovine serum and cultured for 24 hours, and then the cell was scraped again and centrifuged, and then suspended in HAM F12 medium containing 10% fetal bovine serum supplemented with 500 μg/ml of Geneticin [produced by Life Technologies, Inc., USA] and 250 μg/ml of Zeocin (produced by Invitrogen, USA). The obtained suspension was diluted to the density of 10^4 cells/ml and inoculated in a 96-well plate [produced by Corning Costar Corporation, USA], which was cultured in a CO2 gas incubator at 37° C., whereby obtaining a Geneticin- and Zeocin-resistant transformant.
Subsequently, after the transformant cell line thus obtained was cultured in a 24-well plate [produced by Corning Costar Corporation, USA], a cell line in which the luciferase was expressed and induced, i.e., PPARγ: RXRα: 4ERPP/CHO-K1 cell was selected by the addition of 10 μM pioglitazone hydrochloride.
On the technique in general: A reporter such as luciferase makes a cellular process visible.

Molecules are shown by their SMILES.

`O=C(O)c1ccc(-c2cc(-c3ccc(Cl)cc3)on2)cc1` [Example 30, 4-[5-(4-chlorophenyl)-3-isoxazolyl]benzoic acid]: the melting point is > 300 °C. Also, the EC50 on PPARγ-RXRα heterodimer is 6 nM. The compound `O=C(O)c1ccc(-c2ccc(-c3ccc(C(F)(F)F)cc3)s2)cc1` [Example 16, 4-[5-(4-trifluoromethylphenyl)-2-thienyl]benzoic acid] gave a melting point of 284 to 285 °C. Besides, it took 23 nM to reach a half-maximal effect on PPARγ-RXRα heterodimer (EC50). The corresponding values for `O=C(O)c1cccc(-c2cc(-c3ccccc3)on2)c1` [Example 27, 3-(5-phenyl-3-isoxazolyl)benzoic acid] are 250 to 251 °C and 2.1 nM. The corresponding values for `O=C(O)c1ccc(-c2cc(-c3ccccc3)on2)cc1` [Example 28, 4-(5-phenyl-3-isoxazolyl)benzoic acid] are 297 to 298 °C and 2.3 nM. On the same counts, the results for `O=C(O)c1cccc(-c2ccc(-c3ccc(C(F)(F)F)cc3)o2)c1` [Example 9, 3-[5-(4-trifluoromethylphenyl)-2-furyl]benzoic acid] are 271 to 272 °C and 54 nM. Take `O=C(O)c1ccc(-c2cc(-c3ccc(C(F)(F)F)cc3)on2)cc1` [Example 35, 4-[5-(4-trifluoromethylphenyl)-3-isoxazolyl]benzoic acid]: the melting point was > 300 °C. Further, the half-maximal effective concentration (EC50) at PPARγ-RXRα heterodimer amounted to 3.8 nM. On the same counts, the results for `O=C(O)c1cccc(-c2cc(-c3ccc(C(F)(F)F)cc3)on2)c1` [Example 34, 3-[5-(4-trifluoromethylphenyl)-3-isoxazolyl]benzoic acid] are 276 to 277 °C and 1.2 nM.

In turn, `O=C(O)c1cccc(-c2cc(-c3ccc(Cl)cc3)on2)c1` [Example 29, 3-[5-(4-chlorophenyl)-3-isoxazolyl]benzoic acid] returned a melting point of 298 to 299 °C. At PPARγ-RXRα heterodimer, this compound showed a 50% effective concentration (EC50) of 0.59 nM. Compound `O=C(O)c1ccc(-c2cc(-c3ccc(C(F)(F)F)cc3)no2)cc1` [Example 26, 4-[3-(4-trifluorophenyl)-5-isoxazolyl]benzoic acid] registered an EC50 at PPARγ-RXRα heterodimer of 23 nM. For the compound `O=C(O)c1ccc(-c2noc(-c3ccc(C(F)(F)F)cc3)n2)cc1` [Example 44, 4-[5-(4-trifluoromethylphenyl)-1,2,4-oxadiazol-3-yl]benzoic acid], the melting point was in the range of 286 to 287 °C. For the same compound, the EC50 at PPARγ-RXRα heterodimer came to 68 nM. Regarding `O=C(O)c1ccc(-c2nnc(-c3ccc(C(F)(F)F)cc3)o2)cc1` [Example 49, 4-[5-(4-trifluoromethylphenyl)-1,3,4-oxadiazol-2-yl]benzoic acid], the melting point was > 300 °C. Turning to `O=C(O)c1cccc(-c2cc(-c3ccc(C(F)(F)F)cc3)no2)c1` [Example 33, 3-[3-(4-trifluoromethylphenyl)-5-isoxazolyl]benzoic acid], the melting point fell in the range of 272 to 273 °C. The same compound gave an EC50 at PPARγ-RXRα heterodimer of 2.7 nM. In the case of `O=Cc1cccc(-c2cc(-c3ccc(C(F)(F)F)cc3)no2)c1` [Example 82, 3-[3-(4-trifluoromethylphenyl)-5-isoxazolyl]benzaldehyde], the melting point lay within 151 to 152 °C. Take `O=C(O)c1ccc(-c2nnc(-c3ccccc3[N+](=O)[O-])o2)cc1` [Example 52, 4-[5-(2-nitrophenyl)-1,3,4-oxadiazol-2-yl]benzoic acid]: the melting point is 239 to 240 °C. Still for that read-out and setting: the figure for `CCOC(=O)c1cccc(-c2ccc(-c3ccc(C(F)(F)F)cc3)o2)c1` [Example 5, ethyl 3-[5-(4-trifluoromethylphenyl)-2-furyl]benzoate] is 93 to 94 °C; for `O=C(O)c1ccc(-c2nc(-c3cccc(Oc4ccccc4)c3)no2)cc1` [Example 79, 4-[3-(3-phenoxyphenyl)-1,2,4-oxadiazol-5-yl]benzoic acid] it is 292 to 293 °C. On the same count and under the same terms, then `O=C(O)c1ccc(-c2nnc(-c3ccccc3)o2)cc1` [Example 48, 4-[5-phenyl-1,3,4-oxadiazol-2-yl]benzoic acid], with > 300 °C; and `Nc1cc(C(=O)O)ccc1-c1nc(-c2ccc(C(F)(F)F)cc2)no1` [Example 66, 3-amino-4-[3-(4-trifluoromethylphenyl)-1,2,4-oxadiazol-5-yl]benzoic acid], with > 300 °C. On the same count and under the same terms, then `COC(=O)c1ccc(-c2cc(-c3ccc(C(F)(F)F)cc3)on2)cc1` [Example 32, methyl 4-[5-(4-trifluoromethylphenyl)-3-isoxazolyl]benzoate], with 183 to 184 °C; and `COC(=O)c1ccc(-c2nnc(-c3ccc(C(C)(C)C)cc3)o2)c([N+](=O)[O-])c1` [Example 68, methyl 4-[5-(4-t-butylphenyl)-1,3,4-oxadiazol-2-yl]-3-nitrobenzoate], with 142 to 143 °C. As for `O=C(O)c1ccccc1-c1ccc(-c2ccc(C(F)(F)F)cc2)o1` [Example 8, 2-[5-(4-trifluoromethylphenyl)-2-furyl]benzoic acid], the melting point fell in the range of 182 to 183 °C.

Turning to `CCOC(=O)c1ccc(-c2ccc(-c3ccc(C(F)(F)F)cc3)o2)cc1` [Example 6, ethyl 4-[5-(4-triflubromethylphenyl)-2-furyl]benzoate], on PPARγ-RXRα heterodimer, the EC50 came to 3.6 nM. Compound `COC(=O)c1ccc(-c2nc(-c3ccc(C(F)(F)F)cc3)no2)c(NC(=O)C(F)(F)F)c1` [Example 65, methyl 3-trifluoroacetylamino-4-[3-(4-trifluoromethylphenyl)-1,2,4-oxadiazol-5-yl]benzoate] registered a melting point of 188 to 189 °C. Same read-out and setting: the figure for `COC(=O)c1ccc(-c2cc(-c3ccccc3)on2)cc1` [Example 21, methyl 4-(5-phenyl-3-isoxazolyl)benzoate] is 201 to 202 °C; for `O=C(O)c1ccc(-c2nc(-c3ccc(C(F)(F)F)cc3)no2)c([N+](=O)[O-])c1` [Example 63, 3-nitro-4-[3-(4-trifluoromethylphenyl)-1,2,4-oxadiazol-5-yl]benzoic acid] it is 233 to 234 °C.

Consider `CCOC(=O)c1ccc(-c2nnc(-c3ccccc3N)o2)cc1` [Example 54, ethyl 4-[5-(2-aminophenyl)-1,3,4-oxadiazol-2-yl]benzoate], for which the melting point was 174 to 175 °C.

As a reminder, the EC50 is the concentration that produces a half-maximal response. Read a high EC50 as a less potent agent. The term melting point denotes the temperature, or range, at which the solid turns liquid.
